Reference: PMC4086741 (Molecular Pharmaceutics, 2014)

Tests used:
P-gp = P-gp (Homo sapiens, UniProt P08183); test: Calcein-AM transport; details: P-gp-overexpressing KB-V1 cells, probe calcein-AM (0.5 μg/mL)
ABCG2 = target: T1, ABCG2 (Homo sapiens, UniProt Q9UNQ0); test: Mitoxantrone transport; details: ABCG2-overexpressing MCF7-FLV1000 cells, probe mitoxantrone (5 μM)
T1 sequence (Q9UNQ0 1-655): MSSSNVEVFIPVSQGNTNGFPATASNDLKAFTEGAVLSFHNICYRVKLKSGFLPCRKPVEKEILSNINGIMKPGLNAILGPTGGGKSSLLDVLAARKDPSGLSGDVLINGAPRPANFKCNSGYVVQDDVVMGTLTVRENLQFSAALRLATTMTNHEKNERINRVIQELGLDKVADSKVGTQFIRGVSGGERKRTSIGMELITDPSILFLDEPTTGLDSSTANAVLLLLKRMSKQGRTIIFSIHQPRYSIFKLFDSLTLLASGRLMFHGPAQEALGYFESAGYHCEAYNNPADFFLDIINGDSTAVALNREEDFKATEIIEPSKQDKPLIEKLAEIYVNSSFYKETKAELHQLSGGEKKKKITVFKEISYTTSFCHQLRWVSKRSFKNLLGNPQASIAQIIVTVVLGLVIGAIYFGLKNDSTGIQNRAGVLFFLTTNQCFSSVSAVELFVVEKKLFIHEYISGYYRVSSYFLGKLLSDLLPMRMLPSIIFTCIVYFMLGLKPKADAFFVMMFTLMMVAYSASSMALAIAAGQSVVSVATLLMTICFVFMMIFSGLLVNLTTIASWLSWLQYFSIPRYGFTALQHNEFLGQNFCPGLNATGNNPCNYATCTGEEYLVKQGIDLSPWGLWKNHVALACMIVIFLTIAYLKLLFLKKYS

Sequence of P-gp (P08183 whole entry): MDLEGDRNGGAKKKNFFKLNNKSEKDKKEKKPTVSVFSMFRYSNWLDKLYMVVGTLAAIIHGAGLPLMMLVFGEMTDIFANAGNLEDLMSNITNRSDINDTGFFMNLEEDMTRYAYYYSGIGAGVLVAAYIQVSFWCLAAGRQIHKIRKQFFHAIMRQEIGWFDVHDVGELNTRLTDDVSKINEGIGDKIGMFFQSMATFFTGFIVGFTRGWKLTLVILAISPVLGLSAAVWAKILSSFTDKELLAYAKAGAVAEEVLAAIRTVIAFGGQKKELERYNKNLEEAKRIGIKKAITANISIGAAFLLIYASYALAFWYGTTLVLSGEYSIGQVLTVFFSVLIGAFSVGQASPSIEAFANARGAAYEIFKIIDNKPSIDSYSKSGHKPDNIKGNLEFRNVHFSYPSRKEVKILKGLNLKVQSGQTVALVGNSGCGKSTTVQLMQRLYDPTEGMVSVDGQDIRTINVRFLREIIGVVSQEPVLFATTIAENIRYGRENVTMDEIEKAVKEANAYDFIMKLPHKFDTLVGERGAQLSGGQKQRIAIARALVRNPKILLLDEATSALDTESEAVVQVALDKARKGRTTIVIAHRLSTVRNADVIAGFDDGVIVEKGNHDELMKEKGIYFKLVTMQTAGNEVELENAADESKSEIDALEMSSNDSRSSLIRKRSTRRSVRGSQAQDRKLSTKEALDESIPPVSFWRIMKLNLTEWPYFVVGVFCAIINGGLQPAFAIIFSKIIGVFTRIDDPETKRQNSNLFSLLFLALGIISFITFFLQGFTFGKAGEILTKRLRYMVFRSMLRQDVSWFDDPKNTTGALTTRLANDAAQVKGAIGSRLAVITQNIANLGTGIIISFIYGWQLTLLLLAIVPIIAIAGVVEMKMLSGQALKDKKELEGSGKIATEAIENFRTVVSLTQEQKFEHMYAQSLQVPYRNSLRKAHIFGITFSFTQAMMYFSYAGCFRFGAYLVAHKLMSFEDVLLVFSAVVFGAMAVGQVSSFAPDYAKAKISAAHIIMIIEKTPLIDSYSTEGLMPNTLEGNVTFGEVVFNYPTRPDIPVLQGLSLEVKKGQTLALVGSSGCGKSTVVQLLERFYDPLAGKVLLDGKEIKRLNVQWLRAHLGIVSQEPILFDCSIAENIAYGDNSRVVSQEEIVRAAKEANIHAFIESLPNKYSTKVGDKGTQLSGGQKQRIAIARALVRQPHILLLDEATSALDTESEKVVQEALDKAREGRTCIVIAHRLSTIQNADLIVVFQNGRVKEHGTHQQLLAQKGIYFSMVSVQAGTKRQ

Question: What does the source list for `Cc1cn(-c2cc(NC(=O)c3ccc(C)c(Nc4nccc(-c5cccnc5)n4)c3)cc(C(F)(F)F)c2)cn1` [nilotinib, Nilotinib]?
Answer: IC20 (P-gp): 1160 nM; IC20 (ABCG2): 240 nM
